Assay results as given in patent US10576082B2, “ErbB2 regulates autophagic flux to modulate the proteostasis of APP-CTFs in alzheimer's disease” (Academia Sinica, priority 2016, dated 2020).

Columns and labels:
[1] = test system: γ-secretase cleavage of CFP-C99 and YFP-NΔE in HEK293 (CCNY) cells; test: Cell-based C99-NΔE dual γ-secretase assay (CCNY cells); conditions: CCNY cell line
Method: To generate a cellular γ-secretase assay that could be used to simultaneously identify cleavage of C99 and NΔE and the production of AICD and NICD, we […] HEK293 cells with pAS2-CCNY and selected transfectants with DMEM medium containing 10% FBS and 250 μg/ml zeocin. […] The CCNY clone was selected and optimized for the cell-based C99-NΔE dual γ-secretase assay.

[2] = test system: zebrafish embryos expressing GFP-tagged C99; test: Phenotype of C99-expressing zebrafish embryos (curved trunk, Notch-dependent somite development); format: in vivo; conditions: zebrafish, in vivo
[3] = test system: γ-secretase-mediated proteolysis of C99 (CG cells); test: Cell-based C99-specific γ-secretase assay (CG cells, Gal4 luciferase reporter); conditions: dose-dependent manner
Method: (§1) (A) Adherent CG and NG cells (20,000 cells/well) were treated with 1 μM of the indicated ErbB1/2-selective tyrosine kinase inhibitors in the presence of 1 μg/ml tetracycline at 37° C. for 24 h. The luminescence signals emitted by cells treated with vehicle alone (Ctrl, 0.1% DMSO) were referred to as 100% relative luminescence signals. The luminescence signals generated by γ-secretase-mediated proteolysis of C99 (CG) or NΔE (NG) were determined using the Steady-Glo luciferase assay reagent. (B) HEK293 overexpressing C99-YFP cells were treated with 1 μM of the indicated ErbB1/2 tyrosine kinase inhibitors at 37° C. for 24 h. Clarified lysates were analyzed by Western blotting and quantified by Image J. (C) HEK293 overexpressing ErbB1 ErbB2, CFP-tagged C99, and YFP-tagged NΔE cells were infected with gene-targeting shRNA-encoding lentivirus (shErbB1 or shErbB2) at 37° C. for 48 h. Clarified lysates containing equivalent amounts of proteins were examined by Western blotting and quantified by Image J. (D) CG and NG cells were infected with gene-targeting shRNA-encoding lentivirus at 37° C. for 48 h. Following induction with 1 μg/ml tetracycline for 24 h. […] Data are shown as the mean±SD from three independent experiments, and were analyzed by Student's t-tests. * p<0.05. […]

[4] = test system: γ-secretase-mediated proteolysis of NΔE (NG cells); test: Cell-based NΔE-specific γ-secretase assay (NG cells, Gal4 luciferase reporter); conditions: dose-dependent manner
Method: as §1

[5] = test system: HEK293 cells overexpressing ErbB1, ErbB2, CFP-tagged C99, and YFP-tagged NΔE; test: Lysosome inhibitor rescue after ErbB2 knockdown, Western blotting of HEK293 cells co-expressing ErbB1, ErbB2, CFP-C99, YFP-NΔE; format: cell-based; conditions: 10 μM chloroquine or 10 mM ammonium chloride, 37° C., 24 h after 48 h shRNA infection
Method: Clarified lysates containing equivalent amounts of proteins were analyzed by Western blotting. (B, C) HEK293 overexpressing CFP-LC3 cells were infected with lentivirus encoding shRNA targeting LacZ ErbB2, or ErbB2 plus ATG5 for 48 h. The autophagy induction was analyzed by fluorescence confocal microscopy. The number of CFP-LC3 puncta per cell was quantified. The levels of LC3-I, LC3-II, and GAPDH were analyzed by Western blotting. (D, E) HEK293 cells overexpressing ErbB1, ErbB2, CFP-tagged C99, and YFP-tagged NΔE were infected with lentivirus encoding shRNA targeting LacZ (Ctrl), ErbB1, or ErbB2 for 48 h. […] The levels of LC3-1, LC3-II, and p62 were analyzed by Western blotting and quantified by NIH Image J. Conditional media were harvested and processed for determination of secreted Aβ40 using a colourimetric Aβ40-specific ELISA kit. […] The quantitative data are shown as mean±SD from three independent experiments, and were analyzed by Student's t-tests. * p<0.05.
Preparation of cell extracts. […] Following the removal of cell debris by centrifugation, clarified lysates were processed for immunoprecipitation, Western blotting, or quantification of BCA protein content.
Western blotting analysis. Protein concentration was measured with the BCA Protein Assay Kit (Pierce). […]

SMILES | cleavage of CFP-C99 and YFP-NΔE [1] | embryo phenotype (trunk, tail, pigmentation; developmental defects) [2] | γ-secretase-dependent luciferase signals in CG cells [3] | γ-secretase-dependent luciferase signals in NG cells [4] | rescue of the reduction in C99 and AICD elicited by ErbB2 knockdown [5]
C[C@H](NC(=O)Cc1cc(F)cc(F)c1)C(=O)N[C@H](C(=O)OC(C)(C)C)c1ccccc1 [DAPT, N—[N-(3,5-difluorophenacetyl-L-alanyl)]-S-phenylglycine t-butyl ester] | completely suppressed | severe developmental defects | decreased γ-secretase-dependent luciferase signals | decreased γ-secretase-dependent luciferase signals | 
Cl.N [ammonium chloride] |  |  |  |  | rescued
CCN(CC)CCCC(C)Nc1ccnc2cc(Cl)ccc12 (stereo not drawn) [chloroquine] |  |  |  |  | rescued
